# pIC50: −log10 of the molar value. Calls of active or inactive are those of the source. The calls are words filed in the database; no cut-off is given here.
# How the values were obtained:
# [1] = biological target: Histone-lysine N-methyltransferase ASH1L (Homo sapiens, UniProt Q9NR48); assay: Inhibition of ASH1L SET-BAH construct (unknown origin) (2069 to 2833 residues) using SAM as substrate incubated for 1 hr and measured after 45 mins by Beckman scintillation counter method
# MV4-11 [2] = assay: Antitumor activity in human MV4-11-Luc cells xenografted female NSG mouse assessed as decrease in leukemia progression at 25 mg/kg, ip administered twice a day for 21 days; format: functional, organism-based; details: time 21.0 day
# K562 = assay: Antiproliferative activity against human K562 cells measured after 14 days by MTT assay; format: functional; details: K562, 336 h, time 14 day
# MOLM-13 = assay: Antiproliferative activity against human MOLM-13 cells measured after 14 days by MTT assay; format: functional; details: MOLM-13, 336 h, time 14 day
# KOPN-8 = assay: Antiproliferative activity against human KOPN-8 cells measured after 14 days by MTT assay; format: functional; details: KOPN-8, 336 h, time 14 day
# MV4-11 [3] = assay: Induction of human MV4-11 cell differentiation at 6 to 12 uM measured after 7 days; format: functional, cell-based; details: dose 6-12 µM, time 7.0 day
# [4] = Cytotoxicity against human CD34-positive cells; format: toxicity, cell-based, CD34-positive (myeloid/lymphoid) cell
# MV4-11 [5] = assay: Antiproliferative activity against human MV4-11 cells measured after 14 days by MTT assay; format: functional; details: MV4-11, 336 h, time 14 day
# SEM cells = assay: Antiproliferative activity against human SEM cells measured after 14 days by MTT assay; format: functional; details: 336 h, time 14 day
Structure (SMILES),pIC50 [1],further results
NC(=S)c1cccc(-c2cn(CC(CF)CF)c3cc(NC(=O)Cc4nccs4)ccc23)c1,> 4.70,
CS(=O)(=O)N1CCC(n2cc(-c3cccc(C(N)=S)c3)c3ccc(NC(=O)CCCCCNC(=O)c4ccc5c(c4)C(=O)OC54c5ccc(O)cc5Oc5cc(O)ccc54)cc32)CC1,> 4.70,
CC(C)S(=O)(=O)N1CCC(n2cc(-c3cccc(C(N)=S)c3)c3ccc(NC(=O)CCCC[C@@H]4SC[C@@H]5NC(=O)N[C@@H]54)cc32)CC1,> 4.70,
COCCC(=O)Nc1ccc2c(-c3cccc(C(N)=S)c3)cn(C3CCC(F)(F)CC3)c2c1,> 4.70,
CS(=O)(=O)N1CCC(n2cc(-c3cccc(C(N)=S)c3)c3ccc(NC(=O)CCOCCOCCOCCOCCNC(=O)CCCC[C@@H]4SC[C@@H]5NC(=O)N[C@@H]54)cc32)CC1,> 4.70,
CC(=O)Nc1ccc2c(-c3cccc(C(N)=S)c3)cn(C3CCN(S(=O)(=O)C(F)(F)F)CC3)c2c1,> 4.70,
CCCOC1CCNC1C(=O)NCc1ccc2c(-c3cccc(C(N)=S)c3)cn(C3CCN(S(=O)(=O)C(C)C)CC3)c2c1 (configuration not stated),> 4.70,
CC(C)S(=O)(=O)N1CCC(n2cc(-c3cccc(C(N)=S)c3)c3ccc(CNC(=O)C4CNC4)cc32)CC1,> 4.70,
Cc1cc(N2CCC(n3cc(-c4cccc(C(N)=S)c4)c4ccc(CNc5nnc(N)s5)cc43)CC2)n(C)n1,> 4.70,
COc1ccc(Cn2cnc([N+](=O)[O-])c2NCc2ccc3c(-c4cccc(C(N)=S)c4)cn(C4CCOCC4)c3c2)cc1,> 4.70,
CC1CC(n2cc(-c3cccc(C(N)=S)c3)c3ccc(CNc4nnc(N)s4)cc32)CCO1 (configuration not stated),> 4.70,
CS(=O)(=O)N1CCC(n2cc(-c3cccc(C(N)=S)c3)c3ccc(NC(=O)CCCCCNC(=O)CCCC[C@@H]4SC[C@@H]5NC(=O)N[C@@H]54)cc32)CC1,> 4.70,
CCC(=O)Nc1ccc2c(-c3cccc(C(N)=S)c3)cn(C3CCN(S(=O)(=O)C(C)C)CC3)c2c1,> 4.70,
CS(=O)(=O)Nc1ccc2c(-c3cccc(C(N)=S)c3)cn(C3CCOCC3)c2c1,> 4.70,
COc1ccc(Cn2cnc(NCc3ccc4c(-c5cccc(C(N)=S)c5)cn(C5CCOCC5)c4c3)c2[N+](=O)[O-])cc1,> 4.70,
CC1CC(n2cc(-c3cccc(C(N)=S)c3)c3ccc(N)cc32)CCN1S(C)(=O)=O (configuration not stated),> 4.70,
COCCN1CC(C(=O)NCc2ccc3c(-c4cccc(C(N)=S)c4)cn(C4CCN(S(C)(=O)=O)CC4)c3c2)C1,> 4.70,
NC(=S)c1cccc(-c2cn(C3CCC(F)(F)CC3)c3cc(NC(=O)CCCCCNC(=O)c4ccc5c(c4)C(=O)OC54c5ccc(O)cc5Oc5cc(O)ccc54)ccc23)c1,> 4.70,
NC(=S)c1cccc(-c2cn(C3CCN(c4nccs4)CC3)c3cc(CNc4nnc(N)s4)ccc23)c1,> 4.70,
CCCCCCN1CC(C(=O)NCc2ccc3c(-c4cccc(C(N)=S)c4)cn(C4CCN(S(=O)(=O)C(F)(F)F)CC4)c3c2)C1,> 4.70,

Structure (SMILES),pIC50 [1],further results
CC(C)S(=O)(=O)N1CCC(n2cc(-c3cccc(C(N)=S)c3)c3ccc(CNC(=O)C4CCN4)cc32)CC1 (configuration not stated),> 4.70,
NC(=S)c1cccc(-c2cn(C3CCN(S(=O)(=O)C(F)(F)F)CC3)c3cc(CNC(=O)C4CNC4)ccc23)c1,,Activity (MV4-11 [2]): Active
CS(=O)(=O)N1CCC(n2cc(-c3cccc(C(N)=S)c3)c3ccc(CNC(=O)Cc4c[nH]cn4)c(Cl)c32)CC1,> 4.70,
CCCCCCN1CC(C(=O)NCc2ccc3c(-c4cccc(C(N)=S)c4)cn(C4CCN(S(C)(=O)=O)CC4)c3c2)C1,> 4.70,
NC(=S)c1cccc(-c2cn(C3CCN(S(=O)(=O)C(F)(F)F)CC3)c3cc(CNc4nnc(N)s4)ccc23)c1,> 4.70,
CCCOC1CNC(C(=O)NCc2ccc3c(-c4cccc(C(N)=S)c4)cn(C4CCN(S(=O)(=O)C(C)C)CC4)c3c2)C1 (configuration not stated),> 4.70,
CNC(=O)NCc1ccc2c(-c3cccc(C(N)=S)c3)cn(C3CCN(S(=O)(=O)C(F)(F)F)CC3)c2c1,> 4.70,
NC(=S)c1cccc(-c2cn(C3CCN(c4nccs4)CC3)c3cc(CNC(=O)c4c[nH]c5ncccc45)ccc23)c1,> 4.70,
CS(=O)(=O)N1CCC(n2cc(-c3cccc(C(N)=S)c3)c3ccc(NC(=O)CCOCCOCCOCCOCCOCCOCCOCCOCCNC(=O)CCCC[C@@H]4SC[C@@H]5NC(=O)N[C@@H]54)cc32)CC1,> 4.70,
CS(=O)(=O)Nc1ccc2c(-c3cccc(C(N)=S)c3)cn(C3CCC(F)(F)CC3)c2c1,> 4.70,
NC(=S)c1cccc(-c2cn(C3CCOCC3)c3cc(CNc4cc[nH]n4)ccc23)c1,> 4.70,
NC(=S)c1cccc(-c2cn(C3CCN(S(=O)(=O)C(F)(F)F)CC3)c3cc(CNC(=O)C4CNCCN4)ccc23)c1 (configuration not stated),> 4.70,
NC(=S)c1cccc(-c2cn(C3CCN(c4nccs4)CC3)c3cc(CNC(=O)C4CNC4)ccc23)c1,> 4.70,
CC(C)S(=O)(=O)N1CCC(n2cc(-c3cccc(C(N)=S)c3)c3ccc(CNC(=O)C4CN(C)C4)cc32)CC1,> 4.70,
NC(=S)c1cccc(-c2cn(C3CCOCC3)c3cc(CNc4nnc(N)[nH]4)ccc23)c1,> 4.70,
NC(=S)c1cccc(-c2cn(CC(CF)CF)c3cc(NC(=O)CCc4nccs4)ccc23)c1,> 4.70,
NC(=S)c1cccc(-c2cn(C3CCN(S(=O)(=O)C(F)(F)F)CC3)c3cc(CNC(=O)[C@@H]4C[C@H](F)CN4)ccc23)c1,> 4.70,
NC(=S)c1cccc(-c2cn(C3CCN(S(=O)(=O)C(F)(F)F)CC3)c3cc(CNC(=O)NCC4CCN4)ccc23)c1 (configuration not stated),> 4.70,
CC1CN(S(C)(=O)=O)CCC1n1cc(-c2cccc(C(N)=S)c2)c2ccc(N)cc21 (configuration not stated),,GI50 (K562): > 25 µM; GI50 (MOLM-13): 2.7 µM; GI50 (KOPN-8): 2.5 µM; Activity (MV4-11 [3]): Active; GI50 [4]: > 50 µM
CC(C)S(=O)(=O)N1CCC(n2cc(-c3cccc(C(N)=S)n3)c3ccc(CNc4nnc(N)s4)cc32)CC1,> 4.70,

Structure (SMILES),pIC50 [1],further results
COCCC(=O)Nc1ccc2c(-c3cccc(C(N)=S)c3)cn(CC(CF)CF)c2c1,> 4.70,
NC(=S)c1cccc(-c2cn(C3CCN(S(=O)(=O)C(F)(F)F)CC3)c3cc(CNC(=O)[C@@H]4C[C@H](O)CN4)ccc23)c1,> 4.70,
CC1CN(S(C)(=O)=O)CCC1n1cc(-c2cccc(C(N)=S)c2)c2ccc(CNc3nnc(N)s3)cc21 (configuration not stated),> 4.70,
NC(=S)c1cccc(-c2cn(C3CCN(S(=O)(=O)C(F)(F)F)CC3)c3cc(NC(=O)CCOCCOCCOCCOCCOCCOCCNC(=O)CCCC[C@@H]4SC[C@@H]5NC(=O)N[C@@H]54)ccc23)c1,> 4.70,
NC(=S)c1cccc(-c2cn(C3CCN(S(=O)(=O)CCCNC(=O)CCCC[C@@H]4SC[C@@H]5NC(=O)N[C@@H]54)CC3)c3cc(CNC(=O)c4c[nH]c5ccccc45)ccc23)c1,> 4.70,
C[C@@H]1CN[C@H](C(=O)NCc2ccc3c(-c4cccc(C(N)=S)c4)cn(C4CCN(S(=O)(=O)C(F)(F)F)CC4)c3c2)C1,> 4.70,
CCN1CC(C(=O)NCc2ccc3c(-c4cccc(C(N)=S)c4)cn(C4CCN(c5nccs5)CC4)c3c2)C1,> 4.70,
CC(C)S(=O)(=O)N1CCC(n2cc(-c3cccc(C(N)=S)c3)c3ccc(CNC(=O)C4CCCN4)cc32)CC1 (configuration not stated),> 4.70,
CS(=O)(=O)N1CC2CCC1CC2n1cc(-c2cccc(C(N)=S)c2)c2ccc(N)cc21 (configuration not stated),> 4.70,
CCC(=O)Nc1ccc2c(-c3cccc(C(N)=S)c3)cn(CC(CF)CF)c2c1,> 4.70,
CC(C)S(=O)(=O)N1CCC(n2cc(-c3cccc(C(N)=S)c3)c3ccc(N)cc32)CC1,> 4.70,
NC(=S)c1cccc(-c2cn(C3CCC(F)(F)CC3)c3cc(CNC(=O)C4CNC4)ccc23)c1,> 4.70,
COc1cccc2[nH]cc(-c3cccc(C(N)=S)c3)c12,> 4.70,
CC(C)S(=O)(=O)N1CCC(n2cc(-c3cccc(C(N)=S)c3)c3ccc(CNc4nnc(N)s4)cc32)CC1,,GI50 (K562): > 50 µM; GI50 (MOLM-13): 5.5 µM; GI50 (KOPN-8): 5 µM; GI50 (MV4-11 [5]): 2.5 µM; GI50 (SEM cells): 2 µM
CN1CC(C(=O)NCc2ccc3c(-c4cccc(C(N)=S)c4)cn(C4CCN(S(=O)(=O)C(F)(F)F)CC4)c3c2Cl)C1,> 4.70,
CC1CN(S(C)(=O)=O)CCC1n1cc(-c2cccc(C(N)=S)c2)c2ccc(CNC(=O)C3CN(C)C3)cc21 (configuration not stated),> 4.70,
CN(C)c1cccc2c(S(=O)(=O)NCCCCCCCCC(=O)Nc3ccc4c(-c5cccc(C(N)=S)c5)cn(C5CCC(F)(F)CC5)c4c3)cccc12,> 4.70,
NC(=S)c1cccc(-c2cn(C3CCC(F)(F)CC3)c3c(Cl)c(N)ccc23)c1,> 4.70,
CC(C)S(=O)(=O)N1CCC(n2cc(-c3cccc(C(N)=S)c3)c3ccc(N4CCCC4=O)cc32)CC1,> 4.70,

# Reference: ChEMBL document CHEMBL5052827, “Ash1l inhibitors and methods of treatment therewith” (2020)
